The assay deals with T1, Recombinant human TPH1 (MBP tagged) (Homo sapiens, UniProt P17752).
T1 construct: cloning full length human TPH1 cDNA in to a bacterial pMAL-c5E expression vector; made in house; host or cells: E. coli BL21 (DE3)
T1 sequence (P17752 1-444): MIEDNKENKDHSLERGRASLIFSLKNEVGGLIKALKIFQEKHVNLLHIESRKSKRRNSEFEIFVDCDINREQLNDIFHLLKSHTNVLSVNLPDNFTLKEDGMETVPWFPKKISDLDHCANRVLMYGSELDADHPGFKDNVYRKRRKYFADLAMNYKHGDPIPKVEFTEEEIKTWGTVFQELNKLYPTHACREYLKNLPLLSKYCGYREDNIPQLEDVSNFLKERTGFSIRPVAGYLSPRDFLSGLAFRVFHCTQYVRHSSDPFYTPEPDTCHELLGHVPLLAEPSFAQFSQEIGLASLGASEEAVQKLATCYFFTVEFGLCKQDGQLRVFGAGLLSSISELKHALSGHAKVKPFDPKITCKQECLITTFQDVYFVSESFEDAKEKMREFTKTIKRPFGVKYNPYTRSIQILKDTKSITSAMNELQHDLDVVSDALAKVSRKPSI
Put plainly: TPH1 in vitro inhibition assay (kinetic fluorescence). It counts as biochemical. As to conditions: read-out: TPH1 Range (TPH1 inhibition IC50). A digest of the protocol:
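Final mix: 15 nM MBP-TPH1, 30 μM Trp, 36 μM 6-methyltetrahydropterin, 25 μM ferrous ammonium sulfate, 50 mM MES pH 7.1, 1% DMSO, room temperature.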
For the compound `Cc1ccn(-c2cc(-c3ccc(OC(F)(F)F)c(C)c3)ccc2[C@@H](Oc2cc(N3CCC4(CC3)CN[C@H](C(=O)O)C4)nc(N)n2)C(F)(F)F)n1` [Example 1bq, (S)-8-(2-amino-6-((R)-2,2,2-trifluoro-1-(3′-methyl-3-(3-methyl-1H-pyrazol-1-yl)-4′-(trifluoromethoxy)-[1,1′-biphenyl]-4-yl)ethoxy)pyrimidin-4-yl)-2,8-diazaspiro[4.5]decane-3-carboxylic acid], the half-inhibitory concentration (IC50) is below 50 nM.

Take `Cc1ccn(-c2cc(-c3ccc(OC(C)C)c(Cl)c3)ccc2[C@@H](Oc2cc(N3CCC4(CC3)CN[C@H](C(=O)O)C4)nc(N)n2)C(F)(F)F)n1` [Example 1bv, (S)-8-(2-amino-6-((R)-1-(3′-chloro-4′-isopropoxy-3-(3-methyl-1H-pyrazol-1-yl)-[1,1′-biphenyl]-4-yl)-2,2,2-trifluoroethoxy)pyrimidin-4-yl)-2,8-diazaspiro[4.5]decane-3-carboxylic acid]: the IC50 was below 50 nM.

In the case of `Cc1ccn(-c2cc(-c3ccc4ccccc4c3)ccc2[C@@H](Oc2cc(N3CCC4(CC3)CN[C@H](C(=O)O)C4)nc(N)n2)C(F)(F)F)n1` [Example 1bw, (S)-8-(2-amino-6-((R)-2,2,2-trifluoro-1-(2-(3-methyl-1H-pyrazol-1-yl)-4-(naphthalen-2-yl)phenyl)ethoxy)pyrimidin-4-yl)-2,8-diazaspiro[4.5]decane-3-carboxylic acid], the IC50 was in the range of 50 to 300 nM.

With `Cc1ccn(-c2cc(-c3ccc(OCc4ccccc4)c(F)c3)ccc2[C@@H](Oc2cc(N3CCC4(CC3)CN[C@H](C(=O)O)C4)nc(N)n2)C(F)(F)F)n1` [Example 1bx, (S)-8-(2-amino-6-((R)-1-(4′-(benzyloxy)-3′-fluoro-3-(3-methyl-1H-pyrazol-1-yl)-[1,1′-biphenyl]-4-yl)-2,2,2-trifluoroethoxy)pyrimidin-4-yl)-2,8-diazaspiro[4.5]decane-3-carboxylic acid], the IC50 is below 50 nM.

`Cc1ccn(-c2cc(-c3ccc(OC(C)C)c(C)c3)ccc2[C@@H](Oc2cc(N3CCC4(CC3)CN[C@H](C(=O)O)C4)nc(N)n2)C(F)(F)F)n1` [Example 1by, (S)-8-(2-amino-6-((R)-2,2,2-trifluoro-1-(4′-isopropoxy-3′-methyl-3-(3-methyl-1H-pyrazol-1-yl)-[1,1′-biphenyl]-4-yl)ethoxy)pyrimidin-4-yl)-2,8-diazaspiro[4.5]decane-3-carboxylic acid]: the IC50 is below 50 nM.

Consider `CCCOc1ccc(-c2ccc([C@@H](Oc3cc(N4CCC5(CC4)CN[C@H](C(=O)O)C5)nc(N)n3)C(F)(F)F)c(-n3ccc(C)n3)c2)cc1F` [Example 1bz, (S)-8-(2-amino-6-((R)-2,2,2-trifluoro-1-(3′-fluoro-3-(3-methyl-1H-pyrazol-1-yl)-4′-propoxy-[1,1′-biphenyl]-4-yl)ethoxy)pyrimidin-4-yl)-2,8-diazaspiro[4.5]decane-3-carboxylic acid], for which the IC50 was below 50 nM.

As to `CCCCOc1ccc(-c2ccc([C@@H](Oc3cc(N4CCC5(CC4)CN[C@H](C(=O)O)C5)nc(N)n3)C(F)(F)F)c(-n3ccc(C)n3)c2)cc1F` [Example 1ca, (S)-8-(2-amino-6-((R)-1-(4′-butoxy-3′-fluoro-3-(3-methyl-1H-pyrazol-1-yl)-[1,1′-biphenyl]-4-yl)-2,2,2-trifluoroethoxy)pyrimidin-4-yl)-2,8-diazaspiro[4.5]decane-3-carboxylic acid], the IC50 was below 50 nM.

For the compound `Cc1ccn(-c2cc(-c3ccc(-c4nnc(C)o4)c(F)c3)ccc2[C@@H](Oc2cc(N3CCC4(CC3)CN[C@H](C(=O)O)C4)nc(N)n2)C(F)(F)F)n1` [Example 1cb, (S)-8-(2-amino-6-((R)-2,2,2-trifluoro-1-(3′-fluoro-4′-(5-methyl-1,3,4-oxadiazol-2-yl)-3-(3-methyl-1H-pyrazol-1-yl)-[1,1′-biphenyl]-4-yl)ethoxy)pyrimidin-4-yl)-2,8-diazaspiro[4.5]decane-3-carboxylic acid], the IC50 was below 50 nM.

As to `Cc1ccn(-c2cc(-c3ccc(S(C)(=O)=O)cc3)ccc2[C@@H](Oc2cc(N3CCC4(CC3)CN[C@H](C(=O)O)C4)nc(N)n2)C(F)(F)F)n1` [Example 1cc, (S)-8-(2-amino-6-((R)-2,2,2-trifluoro-1-(3-(3-methyl-1H-pyrazol-1-yl)-4′-(methylsulfonyl)-[1,1′-biphenyl]-4-yl)ethoxy)pyrimidin-4-yl)-2,8-diazaspiro[4.5]decane-3-carboxylic acid], the IC50 was below 50 nM.

Consider `CCCOc1ccc(-c2ccc([C@@H](Oc3cc(N4CCC5(CC4)CN[C@H](C(=O)O)C5)nc(N)n3)C(F)(F)F)c(-n3ccc(C)n3)c2)cc1` [Example 1cd, (S)-8-(2-amino-6-((R)-2,2,2-trifluoro-1-(3-(3-methyl-1H-pyrazol-1-yl)-4′-propoxy-[1,1′-biphenyl]-4-yl)ethoxy)pyrimidin-4-yl)-2,8-diazaspiro[4.5]decane-3-carboxylic acid], for which the IC50 is below 50 nM.

For the compound `Cc1ccn(-c2cc(-c3ccc(C(=O)NCCN4CCOCC4)cc3)ccc2[C@@H](Oc2cc(N3CCC4(CC3)CN[C@H](C(=O)O)C4)nc(N)n2)C(F)(F)F)n1` [Example 1ce, (S)-8-(2-amino-6-((R)-2,2,2-trifluoro-1-(3-(3-methyl-1H-pyrazol-1-yl)-4′-((2-morpholinoethyl)carbamoyl)-[1,1′-biphenyl]-4-yl)ethoxy)pyrimidin-4-yl)-2,8-diazaspiro[4.5]decane-3-carboxylic acid], the IC50 is below 50 nM.

For the compound `Cc1ccn(-c2cc(-c3ccc(S(N)(=O)=O)cc3)ccc2[C@@H](Oc2cc(N3CCC4(CC3)CN[C@H](C(=O)O)C4)nc(N)n2)C(F)(F)F)n1` [Example 1cf, (S)-8-(2-amino-6-((R)-2,2,2-trifluoro-1-(3-(3-methyl-1H-pyrazol-1-yl)-4′-sulfamoyl-[1,1′-biphenyl]-4-yl)ethoxy)pyrimidin-4-yl)-2,8-diazaspiro[4.5]decane-3-carboxylic acid], the IC50 was 50 to 300 nM.

Take `Cc1ccn(-c2cc(-c3ccc(C(N)=O)cc3)ccc2[C@@H](Oc2cc(N3CCC4(CC3)CN[C@H](C(=O)O)C4)nc(N)n2)C(F)(F)F)n1` [Example 1cg, (S)-8-(2-amino-6-((R)-1-(4′-carbamoyl-3-(3-methyl-1H-pyrazol-1-yl)-[1,1′-biphenyl]-4-yl)-2,2,2-trifluoroethoxy)pyrimidin-4-yl)-2,8-diazaspiro[4.5]decane-3-carboxylic acid]: the IC50 is below 50 nM.

For the compound `CNC(=O)c1ccc(-c2ccc([C@@H](Oc3cc(N4CCC5(CC4)CN[C@H](C(=O)O)C5)nc(N)n3)C(F)(F)F)c(-n3ccc(C)n3)c2)cc1` [Example 1ch, (S)-8-(2-amino-6-((R)-2,2,2-trifluoro-1-(3-(3-methyl-1H-pyrazol-1-yl)-4′-(methylcarbamoyl)-[1,1′-biphenyl]-4-yl)ethoxy)pyrimidin-4-yl)-2,8-diazaspiro[4.5]decane-3-carboxylic acid], the 50% inhibitory concentration (IC50) is 50 to 300 nM.

In the case of `COc1ccc(-c2ccc([C@@H](Oc3cc(N4CCC5(CC4)CN[C@H](C(=O)O)C5)nc(N)n3)C(F)(F)F)c(-n3ccc(C)n3)c2)cc1F` [Example 1ci, (S)-8-(2-amino-6-((R)-2,2,2-trifluoro-1-(3′-fluoro-4′-methoxy-3-(3-methyl-1H-pyrazol-1-yl)-[1,1′-biphenyl]-4-yl)ethoxy)pyrimidin-4-yl)-2,8-diazaspiro[4.5]decane-3-carboxylic acid], the half-inhibitory concentration (IC50) is below 50 nM.

For `Cc1ccn(-c2cc(-c3ccc(C(=O)N4CCNCC4)cc3)ccc2[C@@H](Oc2cc(N3CCC4(CC3)CN[C@H](C(=O)O)C4)nc(N)n2)C(F)(F)F)n1` [Example 1cj, (S)-8-(2-amino-6-((R)-2,2,2-trifluoro-1-(3-(3-methyl-1H-pyrazol-1-yl)-4′-(piperazine-1-carbonyl)-[1,1′-biphenyl]-4-yl)ethoxy)pyrimidin-4-yl)-2,8-diazaspiro[4.5]decane-3-carboxylic acid], the IC50 is below 50 nM.

Turning to `Cc1ccn(-c2cc(-c3ccc(C(=O)N(C)C)cc3)ccc2[C@@H](Oc2cc(N3CCC4(CC3)CN[C@H](C(=O)O)C4)nc(N)n2)C(F)(F)F)n1` [Example 1ck, (S)-8-(2-amino-6-((R)-1-(4′-(dimethylcarbamoyl)-3-(3-methyl-1H-pyrazol-l-y)-[1,1′-biphenyl]-4-yl)-2,2,2-trifluoroethoxy)pyrimidin-4-yl)-2,8-diazaspiro[4.5]decane-3-carboxylic acid], the IC50 was below 50 nM.

Regarding `Cc1ccn(-c2cc(-c3ccc(OCC(C)C)cc3)ccc2[C@@H](Oc2cc(N3CCC4(CC3)CN[C@H](C(=O)O)C4)nc(N)n2)C(F)(F)F)n1` [Example 1cl, (S)-8-(2-amino-6-((R)-2,2,2-trifluoro-1-(4′-isobutoxy-3-(3-methyl-1H-pyrazol-1-yl)-[1,1′-biphenyl]-4-yl)ethoxy)pyrimidin-4-yl)-2,8-diazaspiro[4.5]decane-3-carboxylic acid], the concentration for half-maximal inhibition (IC50) is below 50 nM.

`CCN(CC)C(=O)c1ccc(-c2ccc([C@@H](Oc3cc(N4CCC5(CC4)CN[C@H](C(=O)O)C5)nc(N)n3)C(F)(F)F)c(-n3ccc(C)n3)c2)cc1` [Example 1cm, (S)-8-(2-amino-6-((R)-1-(4′-(diethylcarbamoyl)-3-(3-methyl-1H-pyrazol-1-yl)-[l,l′-biphenyl]-4-yl)-2,2,2-trifluoroethoxy)pyrimidin-4-yl)-2,8-diazaspiro[4.5]decane-3-carboxylic acid]: the IC50 was below 50 nM.

For the origin of these results see patent US11759462B2, “Spirocyclic compounds as tryptophan hydroxylase inhibitors” (priority 2013, dated 2023).
